Here are results for two molecules from patent US20240316028A1, “[…] FORMULATIONS AND THEIR USES” (priority 2023, published 2024).

The format of data set [1] is physicochemical. On the procedure:
All excipients used in the formulations were compatible with physostigmine before and after eBeam of 25 kGy. NaOH was used to adjust the cream pH and was added before mixing with physostigmine.

The conditions of data set [2]: thermal and photolytic conditions.

Where a name gives a salt, the structure may show the parent alone.

Turning to `CNC(=O)Oc1ccc2c(c1)[C@]1(C)CCN(C)[C@@H]1N2C` [Physostigmine Salicylate], the “Total Impurities Pre eBeam” value in data set [1] (Table 13) turned out to be 0.11. Moreover, the “Total Impurities Post eBeam T0” value in data set [1] (Table 13, eBeam 25 kGy) was 0.15.

For `CN1[C@@H]2CC[C@H]1C[C@@H](OC(=O)C(CO)c1ccccc1)C2` (stereo partly drawn) [atropine sulfate], the “thermal and photolytic degradation” value in data set [2] is “No significant variation”.
